Where two headings read alike, the source gives them in different places. One block for each compound: values may come before it.
Key:
Experiment in all cases: biochemical
Parameters in all cases: DiscoveRx KINOMEscan active site-directed competition binding; percent of control kinase bound to immobilised ligand
FLT3-autoinhibited = biological target: T1, FLT3-autoinhibited (Homo sapiens, UniProt P36888)
T1 sequence (P36888 1-993): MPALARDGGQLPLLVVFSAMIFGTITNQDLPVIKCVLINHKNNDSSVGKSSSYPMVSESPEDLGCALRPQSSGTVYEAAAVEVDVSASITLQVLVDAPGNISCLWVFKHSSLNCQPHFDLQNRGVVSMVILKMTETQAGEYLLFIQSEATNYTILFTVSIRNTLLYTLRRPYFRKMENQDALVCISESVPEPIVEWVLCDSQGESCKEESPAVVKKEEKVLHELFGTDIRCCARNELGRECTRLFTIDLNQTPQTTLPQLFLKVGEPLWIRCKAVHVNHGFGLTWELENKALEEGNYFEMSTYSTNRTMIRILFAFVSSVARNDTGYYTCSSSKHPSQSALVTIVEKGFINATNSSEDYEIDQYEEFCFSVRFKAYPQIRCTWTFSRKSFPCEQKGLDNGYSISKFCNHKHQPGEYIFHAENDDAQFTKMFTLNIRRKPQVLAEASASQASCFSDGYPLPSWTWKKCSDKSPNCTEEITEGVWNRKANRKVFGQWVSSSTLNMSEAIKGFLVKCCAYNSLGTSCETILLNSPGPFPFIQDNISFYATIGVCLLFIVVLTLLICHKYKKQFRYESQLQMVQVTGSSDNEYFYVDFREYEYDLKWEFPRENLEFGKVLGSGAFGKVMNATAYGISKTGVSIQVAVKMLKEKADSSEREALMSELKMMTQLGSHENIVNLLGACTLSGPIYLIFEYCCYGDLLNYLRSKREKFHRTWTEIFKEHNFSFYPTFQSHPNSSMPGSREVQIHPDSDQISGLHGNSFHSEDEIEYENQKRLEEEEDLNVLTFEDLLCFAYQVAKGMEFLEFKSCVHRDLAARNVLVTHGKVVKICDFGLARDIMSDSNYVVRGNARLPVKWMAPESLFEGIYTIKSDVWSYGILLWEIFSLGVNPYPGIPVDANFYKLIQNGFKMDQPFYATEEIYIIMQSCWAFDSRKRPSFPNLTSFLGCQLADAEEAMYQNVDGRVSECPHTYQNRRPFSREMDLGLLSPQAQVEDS

IRAK1 = IRAK1 (Homo sapiens, UniProt P51617)
EGFR(L858R,T790M) = EGFR(L858R,T790M) (Homo sapiens, UniProt P00533, L858R/T790M)
DAPK3 = DAPK3 (Homo sapiens, UniProt O43293)
PIP5K2C = biological target: T2, PIP5K2C (Homo sapiens, UniProt Q8TBX8)
T2 construct: gene PIP4K2C
T2 sequence (Q8TBX8 1-421): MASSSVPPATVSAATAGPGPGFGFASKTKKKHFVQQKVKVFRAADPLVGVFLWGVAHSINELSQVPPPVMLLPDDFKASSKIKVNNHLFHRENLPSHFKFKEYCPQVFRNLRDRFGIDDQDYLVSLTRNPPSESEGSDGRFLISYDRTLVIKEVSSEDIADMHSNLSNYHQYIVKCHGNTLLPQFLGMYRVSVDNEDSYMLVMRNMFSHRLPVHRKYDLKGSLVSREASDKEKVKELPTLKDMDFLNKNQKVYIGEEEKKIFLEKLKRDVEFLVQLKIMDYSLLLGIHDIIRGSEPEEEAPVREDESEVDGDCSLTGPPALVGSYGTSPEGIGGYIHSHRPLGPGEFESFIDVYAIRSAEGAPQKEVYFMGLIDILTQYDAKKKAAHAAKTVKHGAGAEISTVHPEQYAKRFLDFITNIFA

ARK5 = biological target: T3, ARK5 (Homo sapiens, UniProt O60285)
T3 construct: gene NUAK1
T3 sequence (O60285 1-661): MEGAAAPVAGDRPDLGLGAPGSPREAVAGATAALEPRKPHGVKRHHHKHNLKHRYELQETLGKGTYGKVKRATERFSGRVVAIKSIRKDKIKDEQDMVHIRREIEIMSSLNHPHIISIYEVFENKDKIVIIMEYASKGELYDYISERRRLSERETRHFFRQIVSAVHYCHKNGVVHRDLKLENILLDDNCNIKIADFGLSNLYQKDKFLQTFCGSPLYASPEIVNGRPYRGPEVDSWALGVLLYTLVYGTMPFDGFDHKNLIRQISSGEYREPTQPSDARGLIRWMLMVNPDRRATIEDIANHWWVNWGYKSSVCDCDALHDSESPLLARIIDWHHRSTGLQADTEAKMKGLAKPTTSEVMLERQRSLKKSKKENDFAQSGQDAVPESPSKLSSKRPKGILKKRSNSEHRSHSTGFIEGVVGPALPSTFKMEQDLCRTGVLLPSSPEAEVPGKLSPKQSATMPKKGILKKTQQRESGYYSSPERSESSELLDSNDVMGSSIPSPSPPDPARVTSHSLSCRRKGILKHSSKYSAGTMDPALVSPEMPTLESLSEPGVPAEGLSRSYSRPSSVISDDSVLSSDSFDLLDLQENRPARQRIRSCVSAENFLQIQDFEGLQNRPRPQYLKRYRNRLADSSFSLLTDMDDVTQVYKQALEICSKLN

RET = RET (Homo sapiens, UniProt P07949)
MYO3A = MYO3A (Homo sapiens, UniProt Q8NEV4)
PIK3CA(C420R) = PIK3CA(C420R) (Homo sapiens, UniProt P42336, C420R)
[1] = read-out: Niraparib (MK-4827) / %Ctrl @ 10000nM
[2] = read-out: Rucaparib / %Ctrl @ 10000nM, binding competition, % of control
[3] = read-out: Olaparib / %Ctrl @ 10000nM
[4] = read-out: Talazoparib (BMN 673) / %Ctrl @ 10000nM

EGFR(L858R,T790M), sequence (P00533 whole entry T790M/L858R): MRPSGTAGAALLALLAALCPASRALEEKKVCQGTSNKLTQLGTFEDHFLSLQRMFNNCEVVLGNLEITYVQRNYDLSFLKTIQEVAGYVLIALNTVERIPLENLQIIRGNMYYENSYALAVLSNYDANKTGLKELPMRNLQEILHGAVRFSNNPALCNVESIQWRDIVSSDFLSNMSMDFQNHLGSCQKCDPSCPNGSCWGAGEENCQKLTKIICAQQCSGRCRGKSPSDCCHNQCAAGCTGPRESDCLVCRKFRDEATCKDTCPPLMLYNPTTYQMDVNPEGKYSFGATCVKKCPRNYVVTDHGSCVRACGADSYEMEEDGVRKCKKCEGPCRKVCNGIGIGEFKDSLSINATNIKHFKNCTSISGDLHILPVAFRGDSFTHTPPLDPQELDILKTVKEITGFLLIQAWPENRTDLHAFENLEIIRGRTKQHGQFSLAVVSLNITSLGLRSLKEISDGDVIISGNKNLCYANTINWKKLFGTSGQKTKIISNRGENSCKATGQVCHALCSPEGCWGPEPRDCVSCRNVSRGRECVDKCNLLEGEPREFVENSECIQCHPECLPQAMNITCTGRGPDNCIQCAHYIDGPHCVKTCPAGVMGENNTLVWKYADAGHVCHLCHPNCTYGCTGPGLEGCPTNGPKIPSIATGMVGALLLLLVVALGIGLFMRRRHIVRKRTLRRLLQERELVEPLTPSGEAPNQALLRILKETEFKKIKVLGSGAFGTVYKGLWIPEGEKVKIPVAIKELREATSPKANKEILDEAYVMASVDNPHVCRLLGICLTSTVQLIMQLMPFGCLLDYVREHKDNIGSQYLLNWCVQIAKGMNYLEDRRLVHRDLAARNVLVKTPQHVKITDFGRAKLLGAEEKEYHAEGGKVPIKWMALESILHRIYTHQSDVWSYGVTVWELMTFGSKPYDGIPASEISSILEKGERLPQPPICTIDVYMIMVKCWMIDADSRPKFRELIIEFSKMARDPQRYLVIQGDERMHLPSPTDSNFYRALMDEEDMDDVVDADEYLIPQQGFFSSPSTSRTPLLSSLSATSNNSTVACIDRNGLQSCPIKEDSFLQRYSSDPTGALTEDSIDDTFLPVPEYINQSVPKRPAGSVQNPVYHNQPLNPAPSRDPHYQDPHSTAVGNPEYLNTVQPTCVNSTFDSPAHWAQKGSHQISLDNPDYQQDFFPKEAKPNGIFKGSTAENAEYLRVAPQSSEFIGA
IRAK1, sequence (P51617 whole entry): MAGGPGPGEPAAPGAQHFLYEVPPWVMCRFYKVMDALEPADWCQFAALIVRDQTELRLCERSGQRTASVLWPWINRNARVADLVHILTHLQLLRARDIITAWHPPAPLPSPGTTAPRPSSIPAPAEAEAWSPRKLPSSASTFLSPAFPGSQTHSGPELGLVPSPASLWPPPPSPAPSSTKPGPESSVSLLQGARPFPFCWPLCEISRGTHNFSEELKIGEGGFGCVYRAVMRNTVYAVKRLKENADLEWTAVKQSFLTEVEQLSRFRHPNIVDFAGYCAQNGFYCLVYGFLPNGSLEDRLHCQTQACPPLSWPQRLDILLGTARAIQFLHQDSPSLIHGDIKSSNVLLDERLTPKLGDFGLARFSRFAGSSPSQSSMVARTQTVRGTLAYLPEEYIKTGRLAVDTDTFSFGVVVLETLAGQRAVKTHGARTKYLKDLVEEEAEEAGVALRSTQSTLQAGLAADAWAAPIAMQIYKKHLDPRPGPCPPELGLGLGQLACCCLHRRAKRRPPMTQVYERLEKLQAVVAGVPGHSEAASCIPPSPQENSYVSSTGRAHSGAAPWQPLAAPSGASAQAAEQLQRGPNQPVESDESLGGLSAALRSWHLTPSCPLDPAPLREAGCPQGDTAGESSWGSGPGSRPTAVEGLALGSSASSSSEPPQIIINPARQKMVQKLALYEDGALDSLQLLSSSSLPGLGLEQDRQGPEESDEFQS
DAPK3, sequence (O43293 whole entry): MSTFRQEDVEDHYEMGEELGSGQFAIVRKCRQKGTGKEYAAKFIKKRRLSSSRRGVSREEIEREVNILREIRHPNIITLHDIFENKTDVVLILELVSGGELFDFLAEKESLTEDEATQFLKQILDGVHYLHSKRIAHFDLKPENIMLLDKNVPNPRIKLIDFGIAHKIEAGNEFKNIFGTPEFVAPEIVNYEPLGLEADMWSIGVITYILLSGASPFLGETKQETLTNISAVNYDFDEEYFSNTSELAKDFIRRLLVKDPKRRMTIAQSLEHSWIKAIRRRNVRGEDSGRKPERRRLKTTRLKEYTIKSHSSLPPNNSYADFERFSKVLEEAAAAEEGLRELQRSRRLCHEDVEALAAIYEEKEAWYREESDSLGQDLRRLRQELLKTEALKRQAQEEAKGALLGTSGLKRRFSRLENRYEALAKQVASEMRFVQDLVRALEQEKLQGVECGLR
PIK3CA(C420R), sequence (P42336 whole entry C420R): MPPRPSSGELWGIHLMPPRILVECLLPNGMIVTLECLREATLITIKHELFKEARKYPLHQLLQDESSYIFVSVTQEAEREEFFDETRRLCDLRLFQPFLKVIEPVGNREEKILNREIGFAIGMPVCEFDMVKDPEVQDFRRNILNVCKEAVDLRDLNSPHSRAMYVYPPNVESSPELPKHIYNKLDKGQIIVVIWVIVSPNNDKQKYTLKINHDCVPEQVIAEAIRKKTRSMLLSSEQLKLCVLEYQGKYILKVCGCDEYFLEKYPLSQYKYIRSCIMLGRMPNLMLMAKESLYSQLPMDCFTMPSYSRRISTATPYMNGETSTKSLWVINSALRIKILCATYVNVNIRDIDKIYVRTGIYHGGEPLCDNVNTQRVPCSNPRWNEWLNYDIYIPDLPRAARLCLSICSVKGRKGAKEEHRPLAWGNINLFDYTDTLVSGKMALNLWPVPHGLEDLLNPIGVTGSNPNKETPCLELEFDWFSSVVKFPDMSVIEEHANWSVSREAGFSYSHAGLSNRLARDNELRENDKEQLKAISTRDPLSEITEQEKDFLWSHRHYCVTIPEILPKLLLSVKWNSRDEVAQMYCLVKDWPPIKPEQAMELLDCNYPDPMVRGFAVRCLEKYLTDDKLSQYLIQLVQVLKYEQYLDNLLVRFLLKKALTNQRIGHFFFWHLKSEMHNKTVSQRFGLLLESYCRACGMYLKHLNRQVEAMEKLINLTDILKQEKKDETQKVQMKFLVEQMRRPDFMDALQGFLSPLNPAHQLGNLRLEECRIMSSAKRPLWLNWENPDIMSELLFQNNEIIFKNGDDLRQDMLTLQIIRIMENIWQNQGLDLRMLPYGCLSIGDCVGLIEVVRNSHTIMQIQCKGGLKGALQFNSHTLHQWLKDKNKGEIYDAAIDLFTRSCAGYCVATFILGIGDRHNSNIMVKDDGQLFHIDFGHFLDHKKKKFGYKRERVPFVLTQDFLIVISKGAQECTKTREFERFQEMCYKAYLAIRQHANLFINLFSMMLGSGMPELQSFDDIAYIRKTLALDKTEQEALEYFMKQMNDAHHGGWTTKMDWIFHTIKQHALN
RET, sequence (P07949 whole entry): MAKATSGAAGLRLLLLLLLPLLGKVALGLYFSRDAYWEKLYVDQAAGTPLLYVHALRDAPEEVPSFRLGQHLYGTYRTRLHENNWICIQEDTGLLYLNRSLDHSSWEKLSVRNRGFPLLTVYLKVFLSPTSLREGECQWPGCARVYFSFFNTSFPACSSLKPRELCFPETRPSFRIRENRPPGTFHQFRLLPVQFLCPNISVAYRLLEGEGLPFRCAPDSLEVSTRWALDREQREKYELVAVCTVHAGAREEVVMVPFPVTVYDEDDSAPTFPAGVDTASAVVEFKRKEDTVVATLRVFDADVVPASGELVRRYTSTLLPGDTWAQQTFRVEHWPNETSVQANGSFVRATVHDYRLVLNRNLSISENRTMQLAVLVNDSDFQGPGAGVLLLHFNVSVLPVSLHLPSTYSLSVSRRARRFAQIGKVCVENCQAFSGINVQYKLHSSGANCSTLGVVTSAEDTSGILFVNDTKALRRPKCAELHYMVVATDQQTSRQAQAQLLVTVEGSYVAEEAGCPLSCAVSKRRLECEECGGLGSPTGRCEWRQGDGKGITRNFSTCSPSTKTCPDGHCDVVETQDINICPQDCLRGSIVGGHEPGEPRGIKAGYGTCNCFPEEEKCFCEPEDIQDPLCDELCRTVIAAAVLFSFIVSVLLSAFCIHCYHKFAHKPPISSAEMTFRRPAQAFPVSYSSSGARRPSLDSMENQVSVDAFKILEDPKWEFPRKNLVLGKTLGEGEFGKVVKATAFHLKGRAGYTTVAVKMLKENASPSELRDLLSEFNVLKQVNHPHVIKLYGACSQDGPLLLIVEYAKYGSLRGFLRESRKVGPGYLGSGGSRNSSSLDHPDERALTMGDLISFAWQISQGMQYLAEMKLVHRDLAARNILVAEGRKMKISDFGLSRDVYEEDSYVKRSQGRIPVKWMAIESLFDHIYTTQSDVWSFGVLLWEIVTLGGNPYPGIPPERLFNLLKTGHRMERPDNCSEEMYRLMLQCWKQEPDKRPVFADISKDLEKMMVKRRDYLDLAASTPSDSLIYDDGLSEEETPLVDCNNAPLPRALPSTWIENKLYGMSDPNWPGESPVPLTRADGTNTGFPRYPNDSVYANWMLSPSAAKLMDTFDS

Compound: NC(=O)c1cccc2cn(-c3ccc([C@@H]4CCCNC4)cc3)nc12 [Niraparib]
- percent of control binding at 10 µM (FLT3-autoinhibited; [1]): 84%
- percent of control binding at 10 µM (IRAK1; [1]): 18%
- percent of control binding at 10 µM (EGFR(L858R,T790M); [1]): 100%
- percent of control binding at 10 µM (DAPK3; [1]): 69%
- percent of control binding at 10 µM (PIP5K2C; [1]): 78%
- percent of control binding at 10 µM (ARK5; [1]): 56%
- percent of control binding at 10 µM (RET; [1]): 83%
- percent of control binding at 10 µM (MYO3A; [1]): 72%
- percent of control binding at 10 µM (PIK3CA(C420R); [1]): 98%

- Rucaparib / %Ctrl @ 10000nM (FLT3-autoinhibited; binding competition, % of control): 93%
- percent of control binding at 10 µM (IRAK1; [2]): 19%
- percent of control binding at 10 µM (EGFR(L858R,T790M); [2]): 70%
- percent of control binding at 10 µM (DAPK3; [2]): 24%
- percent of control binding at 10 µM (PIP5K2C; [2]): 83%
- percent of control binding at 10 µM (ARK5; [2]): 100%
- percent of control binding at 10 µM (RET; [2]): 98%
- percent of control binding at 10 µM (MYO3A; [2]): 42%
- percent of control binding at 10 µM (PIK3CA(C420R); [2]): 74%
Compound: CNCc1ccc(-c2[nH]c3cc(F)cc4c3c2CCNC4=O)cc1 [Rucaparib]

- percent of control binding at 10 µM (FLT3-autoinhibited; [3]): 87%
- percent of control binding at 10 µM (IRAK1; [3]): 82%
- percent of control binding at 10 µM (EGFR(L858R,T790M); [3]): 93%
- percent of control binding at 10 µM (DAPK3; [3]): 93%
- percent of control binding at 10 µM (PIP5K2C; [3]): 98%
- percent of control binding at 10 µM (ARK5; [3]): 99%
- percent of control binding at 10 µM (RET; [3]): 100%
- percent of control binding at 10 µM (MYO3A; [3]): 100%
Compound: O=C(c1cc(Cc2n[nH]c(=O)c3ccccc23)ccc1F)N1CCN(C(=O)C2CC2)CC1 [Olaparib]

- percent of control binding at 10 µM (FLT3-autoinhibited; [4]): 100%
- percent of control binding at 10 µM (IRAK1; [4]): 88%
- percent of control binding at 10 µM (EGFR(L858R,T790M); [4]): 100%
- percent of control binding at 10 µM (DAPK3; [4]): 87%
- percent of control binding at 10 µM (PIP5K2C; [4]): 100%
- percent of control binding at 10 µM (ARK5; [4]): 100%
- percent of control binding at 10 µM (RET; [4]): 100%
- percent of control binding at 10 µM (MYO3A; [4]): 83%
- percent of control binding at 10 µM (PIK3CA(C420R); [4]): 100%
Compound: Cn1ncnc1[C@H]1c2n[nH]c(=O)c3cc(F)cc(c23)N[C@@H]1c1ccc(F)cc1 [Talazoparib]
